pKi: −log10 of the molar value. Counter-ions that a name gives are not always drawn.
molecular target: T1, PAF receptor (Oryctolagus cuniculus, UniProt G1TEI7); test: PAF receptor binding assay ([3H]C18-PAF, rabbit platelet membranes); conditions: inhibition of specific binding of 0.6 nM [3H]C18-PAF to rabbit platelet membranes, 60 min, room temperature; Ki calculated from IC50 by Cheng and Prusoff; read-out: PAF Receptor Binding Activity K1
T1 construct: platelet membranes where prepared by centrifugation and washing; tissue Pel-Freez (Rogers, AR) (whole rabbit blood); host or cells: rabbit platelet membranes
T1 sequence (G1TEI7 1-342): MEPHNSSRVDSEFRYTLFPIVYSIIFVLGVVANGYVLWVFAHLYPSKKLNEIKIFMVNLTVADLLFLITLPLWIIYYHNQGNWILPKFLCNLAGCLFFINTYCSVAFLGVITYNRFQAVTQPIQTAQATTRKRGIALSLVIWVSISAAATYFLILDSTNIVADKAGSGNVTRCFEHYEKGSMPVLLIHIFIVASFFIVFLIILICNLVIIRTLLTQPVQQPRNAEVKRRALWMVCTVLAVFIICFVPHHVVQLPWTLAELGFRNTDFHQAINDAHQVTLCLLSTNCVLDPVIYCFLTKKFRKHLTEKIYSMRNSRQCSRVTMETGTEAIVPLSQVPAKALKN
Procedure: The ability of representative compounds of the present invention to inhibit PAF activity was determined in an in vitro test using the following method.
Citrated whole rabbit blood was obtained from Pel-Freez (Rogers, AR). Rabbit platelets where prepared by centrifugation and washing. The platelets where lysed by freeze-thawing and sonication; platelet membranes where prepared by centrifugation and washing. Final membrane preparations where stored frozen in 10 mM Tris/5 mM MgCl2 /2 mM EDTA (TME buffer, pH 7.0) with 0.25 M sucrose added for membrane stabilization.
The final volume of the assay was 100 μl. The assay was conducted in Millititre-GV™ (Millipore Corp.) filtration plates; incubation time was for 60 minutes at room temperature (22°-23° C.). "Specific binding" was operationally defined as the arithmetic difference between "total binding" of 0.6 nM [^3 H]C18 -PAF (in the absence of added PAF) and "nonspecific binding" (in the presence of 1 μM PAF). After the prescribed incubation, platelet membranes where filtered under vacuum and washed with 1 millilitre of "binding buffer". The filters was dried and removed. The bound radioactivity was quantitated with a Berthold TLC-Linear Analyzer model LB2842.
Experiments where repeated at least once.

**Q.** “3(1-Carbamoylamino-pyridin-3-yl)-7-[1-N,N-dimethylcarbamoyl-6-(4-fluorophenyl)indol-3-ylcarbonyl]-1H,3H-pyrrolo[1,2-c]thiazole [Example 77]” was tested. Which pKi did it give?
**A.** 7.00

**Q.** `CC(C)(C)OC(=O)NCCn1cc(C(=O)c2ccn3c2CSC3c2cccnc2)c2ccc(-c3ccc(F)cc3)cc21` (stereo not drawn) [Example 57] was tested. Which pKi did it give?
**A.** 7.42

same assay, conditions: read-out: PAF Receptor Binding Activity K1

**Q.** How did the pKi turn out when `O=C(c1ccn2c1CSC2c1cccnc1)c1c[nH]c2cc(OCc3ccccc3)ccc12` (stereo not drawn) [Example 4, 3-(Pyridin-3-yl)-7-(6-phenylmethoxyindol-3-yl)carbonyl-1H,3H-pyrrolo[1,2-c]thiazole] was run?
**A.** 7.19

**Q.** With `COc1ccc(-c2ccc3c(C(=O)c4ccn5c4CSC5c4ccc[n+]([O-])c4)cn(C(=O)N(C)C)c3c2)cc1` (stereo not drawn) [Example 45, 3-(1-Oxide-pyridin-3-yl)-7-[1-N,N-dimethylcarbamoyl-6-(4-methoxyphenyl)indol-3-ylcarbonyl]-1H,3H-pyrrolo[1,2-c]thiazole] as the compound, how does the pKi read?
**A.** 8.39

**Q.** `NCCn1cc(C(=O)c2ccn3c2CSC3c2ccc[n+]([O-])c2)c2ccc(-c3ccc(F)cc3)cc21` (stereo not drawn) [Example 90, 3-(1-Oxide-pyridin-3-yl)-7-[1-(2-aminoethyl)-6-(4-fluorophenyl)indol-3-ylcarbonyl]-1H,3H-pyrrolo[1,2-c]thiazole] was tested. Which pKi did it give?
**A.** 6.32

**Q.** How did the pKi turn out when `CNC(=O)n1cc(C(=O)c2ccn3c2CSC3c2ccc[n+]([O-])c2)c2ccc(-c3ccccc3)cc21` (stereo not drawn) [Example 35, 3-(1-Oxide-pyridin-3-yl)-7-(1-N-methylcarbamoyl-6-phenylindol-3-ylcarbonyl)-1H,3H-pyrrolo[1,2-c]thiazole] was run?
**A.** 7.36

**Q.** `O=C(c1ccn2c1CSC2c1ccc[n+]([O-])c1)c1cn(S(=O)(=O)c2ccccc2)c2cc(-c3ccc(F)cc3)ccc12` (stereo not drawn) [Example 73, 3-(1 -Oxide-pyridin-3-yl)-7-[1-phenylsulfonyl-6-(4-fluorophenyl)indol-3-ylcarbonyl]-1H,3-pyrrolo[1,2-c]thiazole] was tested. Which pKi did it give?
**A.** 6.68

**Q.** How did the pKi turn out when `NC(=O)n1cc(C(=O)c2ccn3c2CSC3c2cccnc2)c2ccc(-c3ccc(F)cc3)cc21` (stereo not drawn) [Example 76, 3-(Pyridin-3-yl)-7-[1-carbamoyl-6-(4-fluorophenyl)indol-3-ylcarbonyl]-1H,3H-pyrrolo[1,2-c]thiazole] was run?
**A.** 8.21

**Q.** `CN(C)C(=O)n1cc(C(=O)c2ccn3c2CSC3c2cccnc2)c2ccc(-c3ccccc3)cc21` (stereo not drawn) [Example 12, 3-(Pyridin-3-yl)-7-(1-N,N-dimethylcarbamoyl-6-phenylindol-3-yl)carbonyl-1H,3H-pyrrolo[1,2-c]thiazole] was tested. Which pKi did it give?
**A.** 7.64

**Q.** `NC(=O)n1cc(C(=O)c2ccn3c2CSC3c2cccnc2)c2ccc(OCc3ccccc3)cc21` (stereo not drawn) [Example 37, 3-(Pyridin-3-yl)-7-(1-carbamoyl-6-phenylmethoxyindol-3-ylcarbonyl)-1H,3H-pyrrolo[1,2-c]thiazole] was tested. Which pKi did it give?
**A.** 8.00

**Q.** `CN(C)C(=O)n1cc(C(=O)c2ccn3c2CSC3c2cccnc2)c2cc(OCc3ccccc3)ccc21` (stereo not drawn) [Example 6, 3-(Pyridin-3-yl)-7-(N,N-dimethylcarbamoyl-5-phenylmethoxyindol-3-yl)carbonyl-1H,3H-pyrrolo[1,2-c]thiazole] was tested. Which pKi did it give?
**A.** 6.92

**Q.** How did the pKi turn out when `O=C(c1ccn2c1CSC2c1cccnc1)c1c[nH]c2cc(Cl)ccc12` (stereo not drawn) [Example 47, 3-(Pyridin-3-yl)-7-(6-chloroindol-3-ylcarbonyl)-1H,3H-pyrrolo[1,2-c]thiazole] was run?
**A.** 6.23

**Q.** How did the pKi turn out when `COc1ccc(-c2ccc3c(C(=O)c4ccn5c4C(C)(C)SC5c4cccnc4)c[nH]c3c2)cc1` (stereo not drawn) [Example 25, 1,1-Dimethyl-3-(pyridin-3-yl)-7-[6-(4-methoxyphenyl)indol-3-ylcarbonyl]-1H,3H-pyrrolo[1,2-c]thiazole] was run?
**A.** 6.57

**Q.** `CN(C)C(=O)n1cc(C(=O)c2ccn3c2CSC3c2cccnc2)c2ccc(OCc3ccccc3)cc21` (stereo not drawn) [Example 7, 3-(Pyridin-3-yl)-7-(1-N,N-dimethylcarbamoyl-6-phenylmethoxyindol-3-yl)carbonyl-1H,3H-pyrrolo[1,2-c]thiazole] was tested. Which pKi did it give?
**A.** 7.77

**Q.** `CN(C)C(=O)n1cc(C(=O)c2ccn3c2CSC3c2ccc[n+]([O-])c2)c2ccc(-c3ccccc3)cc21` (stereo not drawn) [Example 54, 3-(1-Oxide-pyridin-3-yl)-7-(1-N,N-dimethylcarbamoyl-6-phenylindol-3-ylcarbonyl)-1H,3H-pyrrolo[1,2-c]thiazole hydrochloride] was tested. Which pKi did it give?
**A.** 7.77

**Q.** `ON=C(c1ccn2c1CSC2c1cccnc1)c1c[nH]c2cc(-c3ccc(F)cc3)ccc12` (stereo not drawn) [Example 83, 3-(Pyridin-3-yl)-7-[6-(4-fluorophenyl)indol-3-ylcarbonyloxime]-1H,3H-pyrrolo[1,2-c]thiazole] was tested. Which pKi did it give?
**A.** 7.97

**Q.** With `CC(C)N(C(=O)n1cc(C(=O)c2ccn3c2CSC3c2cccnc2)c2ccc(OCc3ccccc3)cc21)C(C)C` (stereo not drawn) [Example 16, 3-(Pyridin-3-yl)-7-(1-N,N-diisopropylcarbamoyl-6-phenylmethoxyindol-3-ylcarbonyl)-1H,3H-pyrrolo[1,2-c]thiazole] as the compound, how does the pKi read?
**A.** 7.07

**Q.** `O=C(c1ccn2c1CSC2c1cccnc1)c1c[nH]c2cc(Br)ccc12` (stereo not drawn) [Example 63, 3-(Pyridin-3-yl)-7-(6-bromoindol-3-ylcarbonyl)-1H,3H-pyrrolo[1,2-c]thiazol] was tested. Which pKi did it give?
**A.** 6.24

**Q.** `CN(C)C(=O)n1cc(C(=NNC(N)=O)c2ccn3c2CSC3c2cccnc2)c2ccc(-c3ccc(F)cc3)cc21` (stereo not drawn) [Example 106, 3-(pyridin-3-yl)-7-[1-N,N-dimethylcarbamoyl-6-(4-fluorophenyl)indol-3-ylcarbonylsemicarbazide]-1H,3H-pyrrolo[1,2-c]thiazole] was tested. Which pKi did it give?
**A.** 8.10

**Q.** How did the pKi turn out when `COC(=O)CCn1cc(C(=O)c2ccn3c2CSC3c2cccnc2)c2ccc(-c3ccc(F)cc3)cc21` (stereo not drawn) [Example 46, 3-(Pyridin-3-yl)-7-[1-(2-carbomethoxyethyl)-6-(4-fluorophenyl)indol-3-ylcarbonyl]-1H,3H-pyrrolo[1,2-c]thiazole] was run?
**A.** 8.00

**Q.** With `N#CCn1cc(C(=O)c2ccn3c2CSC3c2cccnc2)c2ccc(-c3ccc(F)cc3)cc21` (stereo not drawn) [Example 94, 3-(Pyridin-3-yl)-7-[1-cyanomethyl-6-(4-fluorophenyl)indol-3-ylcarbonyl]-1H,3H-pyrrolo[1,2-c]thiazole] as the compound, how does the pKi read?
**A.** 7.40

**Q.** `COC(=O)n1cc(C(=O)c2ccn3c2CSC3c2cccnc2)c2ccc(OCc3ccccc3)cc21` (stereo not drawn) [Example 18] was tested. Which pKi did it give?
**A.** 7.46

**Q.** With `O=C(c1ccn2c1CSC2c1cccnc1)c1c[nH]c2cc(-c3ccc(F)cc3)ccc12` (stereo not drawn) [Example 28, 3-(Pyridin-3-yl)-7-[6-(4-fluorophenyl)indol-3-ylcarbonyl]-1H,3H-pyrrolo[1,2-c]thiazole] as the compound, how does the pKi read?
**A.** 7.12

**Q.** `CNC(=O)Cn1cc(C(=O)c2ccn3c2CSC3c2cccnc2)c2ccc(-c3ccc(F)cc3)cc21` (stereo not drawn) [Example 81, 3-(Pyridin-3-yl)-7-[1-(2-N-methylcarbamoylmethyl)-6-(4-fluorophenyl)indol-3-ylcarbonyl]-1H,3H-pyrrolo[1,2-c]thiazole] was tested. Which pKi did it give?
**A.** 8.95
